In the experiment the target is T1, PMGL2 (uncultured bacterium, UniProt Z9SFY5SHV8, S173T/C202S, form not given).
T1 construct: recombinant, cloned into pET32a, poly-His tag; homodimer; GCSAG motif 172-176, catalytic Ser174, Asp272, His302; 319 residues visible in the mutant crystal
T1 sequence (Z9SFY5SHV8 1-343 S173T/C202S): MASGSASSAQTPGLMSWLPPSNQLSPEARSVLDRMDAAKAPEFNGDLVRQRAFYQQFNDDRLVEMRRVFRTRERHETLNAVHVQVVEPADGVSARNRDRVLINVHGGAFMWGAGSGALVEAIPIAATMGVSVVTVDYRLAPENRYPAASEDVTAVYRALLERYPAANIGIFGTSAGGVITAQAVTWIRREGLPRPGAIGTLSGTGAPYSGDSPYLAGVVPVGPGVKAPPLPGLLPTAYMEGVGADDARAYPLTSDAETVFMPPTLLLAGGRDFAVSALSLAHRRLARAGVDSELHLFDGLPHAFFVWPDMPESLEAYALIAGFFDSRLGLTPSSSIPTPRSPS
Kind of experiment: esterase kinetics. In kind it is biochemical. As to conditions: 25 °C.

SMILES strings stand for the structures.

As to `CCCC(=O)Oc1ccc([N+](=O)[O-])cc1` [p-nitrophenyl butyrate], the Km (as a rule, the substrate concentration at which the rate is half of its maximum) amounted to 450 µM.

Values taken from PMC6986724, “Crystal structure of PMGL2 esterase from the hormone-sensitive lipase family with GCSAG motif around the catalytic serine” (PLoS ONE, 2020).
